# Laboratory results from patent US20110190365A1, “Insecticidal 4-phenyl-1H-pyrazoles” (Bayer Crop Science AG, priority 2008, published 2011).
# Legend:
# [1] = log P by HPLC on a reversed-phase column (C18), EEC Directive 79/831 Annex V.A8; format: physicochemical; details: for chromatographic logP: read-out: log P (HCOOH)
# Experimental: The stated log P values were determined in accordance with EEC Directive 79/831 Annex V.A8 by HPLC (High Performance Liquid Chromatography) using a reversed-phase column (C18).
# [2] = tested on: larvae of the mustard beetle (Phaedon cochleariae); test: Phaedon cochleariae test (PHAECO spray treatment); format: in vivo; details: application rate 500 g/ha, Chinese cabbage leaf discs sprayed, after 7 days; for pest or weed control at 500 g/ha: Phaedon cochleariae, foliar, 168 h, read-out: effect in % (beetle larvae killed)
# Experimental: Phaedon cochleariae Test (PHAECO Spray Treatment)
# Solvent: 78.0 parts by weight of acetone • • 1.5 parts by weight of dimethylformamide Emulsifier: 0.5 part by weight of alkylaryl polyglycol ether
# To produce a suitable preparation of active compound, 1 part by weight of active compound is mixed with the stated amounts of solvent and emulsifier, and the concentrate is diluted with emulsifier-containing water to the desired concentration.
# Discs of Chinese cabbage (Brassica pekinensis) are sprayed with an active compound preparation of the desired concentration and, after drying, populated with larvae of the mustard beetle (Phaedon cochleariae).
# After 7 days, the effect in % is determined. 100% means that all beetle larvae have been killed; 0% means that none of the beetle larvae have been killed.
# [3] = HPLC, reversed-phase C18, mobile phase with formic acid
# [4] = HCOOH, Table 4, compounds of formula I-A-Q4
SMILES,log P (HCOOH) ([1]; HCOOH),"chromatographic logP [1, 3]",pest or weed control at 500 g/ha [2] [%],other results
Cc1cc(-n2nc(C(F)(F)F)c(-c3ccccc3Br)c2N)ccc1C(=O)NCc1ccccn1 [I-A-Q2-421],I-A-Q2-421: log P (HCOOH): 2.53,,,effect in % (beetle larvae killed) [2]: 100%
"N#Cc1cc(-n2nc(C(F)(F)F)c(-c3cc(Cl)cc(C(F)(F)F)c3)c2N)ccc1-n1nc[nH]c1=O [I-A-Q1-002, 5-[5-Amino-4-(3-chloro-5-trifluoromethylphenyl)-3-trifluoromethylpyrazol-1-yl]-2-(5-oxo-4,5-dihydro[1,2,4]triazol-1-yl)benzonitrile]",,3.45,> 80,
"Cc1cc(-n2nc(C(F)(F)F)c(-c3cc(Cl)cc(Cl)c3)c2Cl)ccc1C(=O)NC(C)C(F)(F)F (stereo not shown) [I-A-Q2-022, 4-[5-Chloro-4-(3,5-dichlorophenyl)-3-trifluoromethylpyrazol-1-yl]-2-methyl-N-(2,2,2-trifluoro-1-methylethyl)benzamide]",,5.59,> 80,
Cc1cc(-n2nc(C(F)(F)F)c(-c3cccc(Br)c3)c2N)ccc1C(=O)NCc1ncccn1 [I-A-Q2-417],I-A-Q2-417: log P (HCOOH): 3.13,,,effect in % (beetle larvae killed) [2]: 100%
"N#Cc1cc(-n2nc(C(F)(F)F)c(-c3cc(Cl)cc(C(F)(F)F)c3)c2N)ccc1F [I-A-Q4-009, 5-[5-Amino-4-(3-chloro-5-trifluoromethylphenyl)-3-trifluoromethylpyrazol-1-yl]-2-fluorobenzonitrile]",,4.54,> 80,
"Cc1cc(-n2nc(C(F)(F)F)c(-c3cc(Cl)cc(Cl)c3)c2I)ccc1C(=O)NCc1ccccn1 [I-A-Q2-025, 4-[4-(3,5-Dichlorophenyl)-5-iodo-3-trifluoromethylpyrazol-1-yl]-2-methyl-N-pyridin-2-ylmethylbenzamide]",,4.29,> 80,
Cc1cc(-n2nc(C(F)(F)F)c(-c3ccccc3Cl)c2N)ccc1C(=O)NC(C)c1ccccn1 (stereo not shown) [I-A-Q2-415],I-A-Q2-415: log P (HCOOH): 2.71,,,effect in % (beetle larvae killed) [2]: 100%
"COC(=O)c1ccc(-n2nc(C(F)(F)F)c(-c3cc(Cl)cc(Cl)c3)c2N)cc1C [I-A-Q4-011, Methyl 4-[5-amino-4-(3,5-dichlorophenyl)-3-trifluoromethylpyrazol-1-yl]-2-methylbenzoate]",,5.08,> 80,
CCS(=O)(=O)c1ncn(-c2ccc(-n3nc(C(F)(F)F)c(-c4cc(Cl)cc(Cl)c4)c3N)cc2C#N)n1 [I-A-Q1-087],,,,"log P (HCOOH) [1, 3]: I-A-Q1-087: log P (HCOOH): 3.78; effect in % (beetle larvae killed) [2]: 100%"
Cc1cc(-n2nc(C(F)(F)F)c(-c3ccccc3Br)c2N)ccc1C(=O)NCc1ncccn1 [I-A-Q2-419],I-A-Q2-419: log P (HCOOH): 2.68,,,effect in % (beetle larvae killed) [2]: 100%
"Cc1cc(-n2nc(C(F)(F)F)c(-c3cc(Cl)cc(Cl)c3)c2Br)ccc1C(=O)NC(C)C(F)(F)F (stereo not shown) [I-A-Q2-024, 4-[5-Bromo-4-(3,5-dichlorophenyl)-3-trifluoromethylpyrazol-1-yl]-2-methyl-N-(2,2,2-trifluoro-1-mmethylethyl)benzamide]",,5.53,> 80,
CC[S+]([O-])c1ccn(-c2ccc(-n3nc(C(F)(F)F)c(-c4cc(Cl)cc(Cl)c4)c3N)cc2C#N)n1 (stereo not shown) [I-A-Q1-090],,,,"log P (HCOOH) [1, 3]: I-A-Q1-090: log P (HCOOH): 3.47; effect in % (beetle larvae killed) [2]: 100%"
Cc1cc(-n2nc(C(F)(F)F)c(-c3ccccc3Cl)c2N)ccc1C(=O)NCc1ncccn1 [I-A-Q2-414],I-A-Q2-414: log P (HCOOH): 2.72,,,effect in % (beetle larvae killed) [2]: 100%
"CSc1c(-c2cc(Cl)cc(Cl)c2)c(C(F)(F)F)nn1-c1ccc(C(=O)NC(C)C(F)(F)F)c(C)c1 (stereo not shown) [I-A-Q2-027, 4-[4-(3,5-Dichlorophenyl)-5-methylsulphanyl-3-trifluoromethylpyrazol-1-yl]-2-methyl-N-(2,2,2-trifluoro-1-methylethyl)benzamide]",,5.48,> 80,
"Cc1cc(-n2nc(C(F)(F)F)c(-c3cc(Cl)cc(Cl)c3)c2N)ccc1C(=O)NCc1ccccn1 [I-A-Q2-012, 4-[5-Amino-4-(3,5-dichlorophenyl)-3-trifluoromethylpyrazol-1-yl]-2-methyl-N-pyridin-2-ylmethylbenzamide]",,3.35,> 80,
"N#Cc1cc(-n2nc(C(F)(F)F)c(-c3cc(Cl)cc(C(F)(F)F)c3)c2N)ccc1-n1cncn1 [I-A-Q1-001, 5-[5-Amino-4-(3-chloro-5-trifluoromethylphenyl)-3-trifluoromethylpyrazol-1-yl]-2-[1,2,4]triazol-1-ylbenzonitrile]",,3.92,> 80,
Cc1cc(CNC(=O)c2ccc(-n3nc(C(F)(F)F)c(-c4cc(Cl)cc(Cl)c4)c3N)cc2C)n(C)n1 [I-A-Q2-254],I-A-Q2-254: log P (HCOOH): 3.58,,,
Nc1c(-c2ccc(Cl)cc2)c(C(F)(F)F)nn1-c1ccc(Cl)cn1 [I-A-Q4-041],,,,"log P (HCOOH) [1, 4]: I-A-Q4-041: log P (HCOOH): 4.95"
Cc1cc(-n2nc(C(F)(F)Oc3ccccc3Cl)c(-c3cc(Cl)cc(C(F)(F)F)c3)c2N)ccc1C(=O)NCC(F)(F)C(F)F [I-A-Q2-298],I-A-Q2-298: log P (HCOOH): 4.64,,,
Cc1cc(-n2nc(C(F)(F)F)c(-c3cc(Cl)cc(Cl)c3)c2N)ccc1C(=O)NCc1ccccc1 [I-A-Q2-271],I-A-Q2-271: log P (HCOOH): 4.45,,,
CC(NC(=O)c1ccc(-n2nc(C(F)(F)F)c(-c3cc(Cl)cc(C(F)(F)F)c3)c2N)cc1)C(F)(F)F (stereo not shown) [I-A-Q2-095],I-A-Q2-095: log P (HCOOH): 4.51,,,
N#Cc1cc(-n2nc(C(F)(F)F)c(-c3ccc(Cl)cc3Cl)c2N)ccc1-n1cncn1 [I-A-Q1-045],,,,"log P (HCOOH) [1, 3]: I-A-Q1-045: log P (HCOOH): 2.64"
Nc1c(-c2cc(Cl)cc(Cl)c2)c(C(F)(F)F)nn1-c1ccc(C(=O)NCc2ccccn2)c(C(F)(F)F)c1 [I-A-Q2-386],I-A-Q2-386: log P (HCOOH): 3.77,,,
COc1cccc(C(F)(F)c2nn(-c3ccc(C(=O)NCC(F)(F)C(F)F)c(C)c3)c(N)c2-c2cc(Cl)cc(C(F)(F)F)c2)c1 [I-A-Q2-288],I-A-Q2-288: log P (HCOOH): 4.40,,,
Cc1cc(-n2nc(C(F)(F)F)c(-c3cc(Cl)cc(Cl)c3)c2N)ccc1C(=O)NC1CC1F (stereo not shown) [I-A-Q2-281],I-A-Q2-281: log P (HCOOH): 3.97,,,
Cc1cc(-n2nc(C(F)(F)F)c(-c3ccc(F)c(F)c3)c2N)ccc1C(=O)NCc1ccccn1 [I-A-Q2-355],I-A-Q2-355: log P (HCOOH): 2.50,,,
N#Cc1cc(-n2nc(C(F)(F)F)c(-c3cc(Cl)cc(Cl)c3)c2N)ccc1S(=O)(=O)NC1CCC1 [I-A-Q4-122],,,,"log P (HCOOH) [1, 4]: I-A-Q4-122: log P (HCOOH): 4.69"
